Experimental data from patent US20210171904A1, “CELL CULTURE METHOD AND CELL CULTURE APPARATUS” (NIKKISO CO., LTD., priority 2018, published 2021).

Columns and labels:
[1] = pH of medium after addition of lactic acid (pH-uncorrected group); type: physicochemical
[2] = tested on: human pluripotent stem cells; test: Cell density of human pluripotent stem cells after 5 days culture in waste-added medium (cell counter); type: cell-based; details: ammonium chloride added
Method: (§1) Onto a 24-well plate (Corning cellBIND Surface: from Corning Incorporated), seeded were 1×10^3 human pluripotent stem cells, to which a medium for pluripotent stem cell (StemFit: from Ajinomoto Co. Inc.) was added, and then cultured. To the medium before 24 hours from the start of culture, a culture substrate (iMatrix-511; from Nippi, Inc.) was added so as to adjust the concentration to 0.5 μg/ml, and also ROCK inhibitor (Y-27632: from FUJIFILM Wako Pure Chemical Corporation) was added so as to adjust the concentration to 10 μM.
After the elapse of 5 days, the number of cells in each well was measured by using TC20 full-automatic cell counter (from Bio-Rad Laboratories, Inc.), to calculate cell density. Results are illustrated in FIG. 5.
Onto a 24-well plate (Corning cellBIND Surface: from Corning Incorporated), seeded were 1×10^3 human pluripotent stem cells, to which a medium for pluripotent stem cell (StemFit: from Ajinomoto Co. Inc.) was added, and then cultured. […]
After the elapse of 5 days, the number of cells in each well was measured by using TC20 full-automatic cell counter (from Bio-Rad Laboratories, Inc.), to calculate cell density. […]

[3] = tested on: human pluripotent stem cells; test: Optical microscope observation of cells on the 5th day of culture in waste-added medium; type: cell-based
Method: as §1
The individual cells on the 5th day of culture were observed under an optical microscope. FIG. 6 presents optical microphotographs of the cells cultured in the lactic acid-added medium.
as §1, with “μM. […]” for “μM.”

[4] = tested on: human pluripotent stem cells; test: Real-time PCR of undifferentiation/differentiation marker gene expression (Oct4, Nanog, T, Pax6, Fox2) on the 6th day of culture; type: cell-based; details: ammonia 2.5 mM
Method: mRNA was then extracted from each cell on the 6th day of culture, using RNeasy Mini Kit (from QIAGEN N.V.), and then purified. Next, cDNA was synthesized from the thus purified mRNA, by using QuantiTect Reverse Transcription Kit (from QIAGEN N.V.). By using each cDNA as a template, and by using Thermal Cycler Dice Real Time System I (from Takara Bio Inc.), expression levels of Oct4, Nanog, T, Pax6 and Fox2 genes were measured by real-time PCR.
Proportion of expression levels of the individual genes at the individual concentration levels of ammonia were calculated, on the basis of the expression level at an ammonia concentration of 0 mM. FIG. 10 is a chart summarizing relation between the ammonia concentration and the gene expression levels. […] This confirms that keeping of the ammonia concentration at lower than 2.5 mM is effective to keep the cell in the undifferentiated state. It was also confirmed that the ammonia-induced promotion of cell differentiation may be suppressed more reliably, by keeping the ammonia concentration at 1 mM or below.

Structure (SMILES)	pH of the medium ([1]; lactic acid concentration 5.0 mM)	pH of the medium ([1]; lactic acid concentration 7.5 mM)	pH of the medium ([1]; lactic acid concentration 10 mM)	pH of the medium ([1]; lactic acid concentration 15 mM)	ammonia concentration at which cell density sharply decreases [2] [mM]	ammonia concentration at which morphological changes of the cell were observed [3] [mM]	expression level of Pax6 gene (ectoderm differentiation marker) relative to level at 0 mM [4]	expression level of T gene (mesoderm differentiation marker) relative to level at 0 mM [4]
CC(O)C(=O)O (centres unmarked) [lactic acid]	6.9	6.8	6.7	6.5	–	–	–	–
N [ammonia]	–	–	–	–	≥ 10.0	≥ 2.5	nearly ten times	nearly ten times
